The subject of one test is Myzus persicae. The test can be described thus: Myzus persicae test (cabbage leaf dip, mortality). The format is in vivo. The following applies: foliar, 96 h, single compound, infested cabbage leaves dipped, after 4 d. As to the method:
(§1) The expected efficacy of a given combination of two compounds is calculated as follows (see Colby, S. R., “Calculating Synergistic and antagonistic Responses of Herbicide Combinations”, Weeds 15, pp. 20-22, 1967):
(§2) X is the efficacy expressed in % mortality of the untreated control for test compound A at a concentration of m ppm respectively m g/ha,
(§3) Y is the efficacy expressed in % mortality of the untreated control for test compound B at a concentration of n ppm respectively n g/ha,
(§4) E is the efficacy expressed in % mortality of the untreated control using the mixture of A and B at m and n ppm respectively m and n g/ha,
(§5) If the observed insecticidal efficacy of the combination is higher than the one calculated as “E”, then the combination of the two compounds is more than additive, i.e., there is a synergistic effect.
(§6) Solvent: 7 parts by weight of dimethylformamide
(§7) Emulsifier: 2 parts by weight of alkylaryl polyglycolether
To produce a suitable preparation of active compound, 1 part by weight of active compound is mixed with the stated amount of solvent and emulsifier, and the concentrate is diluted with emulsifier-containing water to the desired concentration. […]
After the specified period of time, the mortality in % is determined. […]

A further test has as its system Phaedon cochleariae. The test can be described thus: Phaedon cochleariae test (cabbage leaf dip, larvae mortality). The format is in vivo. The following applies: foliar, 96 h, single compound, dipped cabbage leaves infested with larvae, after 4 d. How it is done: as §1, §2, §3, §4, §5, §6, §7
To produce a suitable preparation of active compound, 1 part by weight of active compound is mixed with the stated amount of solvent and emulsifier, and the concentrate is diluted with emulsifier-containing water to the desired concentration.
Cabbage leaves (Brassica oleracea) are treated by being dipped into the preparation of the active compound of the desired concentration and are infested with larvae of the mustard beetle (Phaedon cochleariae) as long as the leaves are still moist.
After the specified period of time, the mortality in % is determined. 100% means that all the beetle larvae have been killed; 0% means that none of the beetle larvae have been killed.

As for `O=[N+]([O-])NC1=NCCN1Cc1ccc(Cl)nc1` [Imidacloprid, reference compound], in the test with Myzus persicae (0.16 ppm), the mortality at 0.16 ppm is 10%. Further, the mortality at 20 ppm in the test on Phaedon cochleariae (20 ppm) is 70%.
Regarding `CC1=CC(O/C=C2/C(=O)OC3c4ccccc4CC23)OC1=O` (centres unmarked) [Compound A], the mortality at 3e-06 ppm in the test with Myzus persicae (0.000003 ppm) and in the test with Phaedon cochleariae (0.000003 ppm) was 0% each time. In the test on Phaedon cochleariae (0.00003 ppm), the mortality at 3e-05 ppm turned out to be 0%.

A word on the mortality: it is the percentage killed.

Source of the values: patent publication US20100137373A1, “PESTICIDAL COMPOSITION COMPRISING A STR[…] AN I[…]” (priority 2007, published 2010).
